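Results reflect a 48-hour exposure of cells in 96-well plates to compound at five concentrations. GI50 is the concentration that inhibits growth by half.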 Active and inactive are the calls of the source. No stated cut-off is given here; in the data, active = GI50 up to about 1.1 µM and inactive = higher.
Tests used:
Assay in all cases: growth of human tumour cells (NCI), 48 h
A549 = test system: A549
CCRF-CEM = test system: CCRF-CEM
HCT-116 = test system: HCT-116
HT-29 = test system: HT-29
IGROV-1 = test system: IGROV-1
K562 = test system: K562
KM12 = test system: KM12
M14 = test system: M14
OVCAR-4 = test system: OVCAR-4
OVCAR-8 = test system: OVCAR-8
SF-295 = test system: SF-295
SK-MEL-5 = test system: SK-MEL-5
SK-OV-3 = test system: SK-OV-3
SW-620 = test system: SW-620
UACC-62 = test system: UACC-62

Row | Structure (SMILES) | GI50 (A549) | GI50 (CCRF-CEM) | GI50 (HCT-116) | GI50 (HT-29) | GI50 (IGROV-1) | GI50 (K562) | GI50 (KM12) | GI50 (M14) | GI50 (OVCAR-4) | GI50 (OVCAR-8) | GI50 (SF-295) | GI50 (SK-MEL-5) | GI50 (SK-OV-3) | GI50 (SW-620) | GI50 (UACC-62)
1 | CC1=C2C(=O)O[C@@H](c3ccoc3)[C@]2(C)CCC1 [FRAXINELLONE] | > 100 µM (inactive) | > 100 µM (inactive) | > 100 µM (inactive) | > 100 µM (inactive) | > 100 µM (inactive) | > 100 µM (inactive) | > 100 µM (inactive) | > 100 µM (inactive) | > 100 µM (inactive) | > 100 µM (inactive) | > 100 µM (inactive) | > 100 µM (inactive) | > 100 µM (inactive) | > 100 µM (inactive) | > 100 µM (inactive)
2 | C=CCc1cc(OC)c2c(c1)C(O)CC(c1ccccc1)O2 (stereo unspecified) | > 100 µM (inactive) | > 100 µM (inactive) | > 100 µM (inactive) | 60.1 µM (inactive) | > 100 µM (inactive) | 23.6 µM (inactive) | > 100 µM (inactive) | > 100 µM (inactive) | > 100 µM (inactive) | > 100 µM (inactive) | > 100 µM (inactive) | > 100 µM (inactive) | > 100 µM (inactive) | > 100 µM (inactive) | > 100 µM (inactive)
3 | COc1ccc(N2C(=O)C3c4[nH]c5ccccc5c4C4CCCCCCC4C3C2=O)cc1 (stereo unspecified) | 6.76 µM (inactive) | 4.12 µM (inactive) | 3.85 µM (inactive) | 23 µM (inactive) | 18.2 µM (inactive) | 10.1 µM (inactive) | > 51.2 µM (inactive) | 11.9 µM (inactive) | 15.9 µM (inactive) | 3.8 µM (inactive) | 11.6 µM (inactive) | 23.8 µM (inactive) | 14.4 µM (inactive) | 7.14 µM (inactive) | 15.9 µM (inactive)
4 | CC(C)(O)[C@@H]1CC[C@@]2(C)CCC[C@H](O)[C@H]2C1 | > 100 µM (inactive) | > 100 µM (inactive) | > 100 µM (inactive) | > 100 µM (inactive) | > 100 µM (inactive) | > 100 µM (inactive) | > 100 µM (inactive) | > 100 µM (inactive) | > 100 µM (inactive) | > 100 µM (inactive) | > 100 µM (inactive) | > 100 µM (inactive) | > 100 µM (inactive) | > 100 µM (inactive) | > 100 µM (inactive)
5 | O=C(O)C1Cc2[nH]cnc2CN1 (stereo unspecified) | > 100 µM (inactive) | > 100 µM (inactive) | > 100 µM (inactive) | > 100 µM (inactive) | > 100 µM (inactive) | > 100 µM (inactive) | > 100 µM (inactive) | > 100 µM (inactive) | > 100 µM (inactive) | > 100 µM (inactive) | > 100 µM (inactive) | > 100 µM (inactive) | > 100 µM (inactive) | > 100 µM (inactive) | > 100 µM (inactive)
6 | O=C(O)CCSC(=O)Nc1cccc(F)c1 | > 100 µM (inactive) | > 100 µM (inactive) | – | > 100 µM (inactive) | > 10 µM (inactive) | > 100 µM (inactive) | > 100 µM (inactive) | 18.3 µM (inactive) | – | > 100 µM (inactive) | > 100 µM (inactive) | – | – | > 100 µM (inactive) | 0.228 µM (active)
7 | COC(=O)[C@]1(C)CCC[C@]2(C)C3CC4OOC3(C=C4C(C)C)CCC21 (stereo partly specified) | 16.8 µM (inactive) | 3.01 µM (inactive) | 15.7 µM (inactive) | 14.7 µM (inactive) | 16 µM (inactive) | 12 µM (inactive) | 17.4 µM (inactive) | 15.5 µM (inactive) | 19.9 µM (inactive) | 19.8 µM (inactive) | 16.3 µM (inactive) | 16.1 µM (inactive) | 20.1 µM (inactive) | 16 µM (inactive) | 17.1 µM (inactive)
